# Experimental data from US4230719A, “Novel 2-[4-(3-methyl-2-thienyl)phenyl]propionic acid and pharmaceutically acceptable salt thereof and method for treating symptoms of inflammation and pain” (Toyama Chemical Co., Ltd., priority 1977, dated 1980).
# Like-named read-outs stand apart in the source and are kept apart here.
# Key:
# [1] = system: Carrageenin-induced edema; assay: Carrageenin-induced edema; format: in vivo, rat (Donryu strain, male); conditions: Rattus norvegicus, po, read-out: Inhibitory percent of swelling; for inhibition in vivo at 15 mg/kg: 15 mg/kg p.o.
# Procedure: (iii) Carrageenin-induced edema
# Each of the 6 Donryu strain male rats per group (each weighing about 140 g), which had been fasted overnight, was orally loaded with 4 ml of water and, after 30 minutes, the test compound was orally administered thereto. Thirty minutes thereafter, a 1%(Wt/V) solution of carrageenin in physiological saline was subcutaneously injected into the subplantar region of the left hind paw. At a time interval of one hour, starting from the end of the first hour till the end of the fifth hour after injection of carrageenin, the paw volume was measured by means of a manometer and pressure transducer. By comparison with the percent increase in swelling of the control group of rats to which a 0.5%(V/V) solution of Tween 80 had been administered, the mean inhibitory percent in 5 hours of swelling was calculated by the following equation: [formula]
# [2] = system: phenylbenzoquinone writhing; assay: Analgesic activity, phenylbenzoquinone method in mouse; format: in vivo, mouse (ddY strain, male); conditions: for Frequency of writhing, mean ± S.E.: during 10 minutes
# Procedure: (i) Phenylbenzoquinone method in mouse
# The test compound was orally administered to each ddY strain male mouse (weighing 22±2 g; 8 mice per group). […] The frequency of writhing during 10 minutes from 5-minutes after the injection of phenylbenzoquinone was measured and compared with that of a control group to which a 0.5% Tween 80 solution was administered. The percent inhibition was calculated by the following equation: [formula]
# [3] = system: pain threshold (brewer's yeast, hind paw); assay: Analgesic activity, Randall-Selitto method in rat; format: in vivo, rat (Wistar strain, male); conditions: for Inhibition: 100% = pain threshold raised by 150 g; for ED50: Rattus norvegicus, po
# Procedure: (ii) Randall-Selitto method in rat
# After one hour, the test compound was orally administered. One hour thereafter, the pain threshold value was measured four times at a time interval of one hour. The mean value of four values obtained was taken as the pain threshold value of each group of rats. The activity of the drug was assumed to be 100% when the pain threshold value was raised by 150 g.
# Adjuvant arthritis = assay: Adjuvant arthritis; format: in vivo, rat (Sprague-Dawley strain, male); conditions: 1 mg/kg p.o./day, mean during one week
# Procedure: A suspension containing 6 mg/ml of killed and dried Mycobacterium butyricum in liquid paraffin was subcutaneously injected into the subplantar region of the left hind paw of Sprague-Dawley strain male rats (weighing 180 to 200 g) in a proportion of 0.1 ml/rat. After 14 days, the rats having inflammatory paws of similar volumes were selected and the test compound was orally administered to the rats repeatedly at the rate shown in Table 4 during one week and the mean inhibitory percent of swelling during one week was determined.
# [4] = system: threshold value of pain due to pressure stimuli (tail); conditions: for Analgesic effect: 100% = threshold raised by 160 g; for ED50: Mus musculus, po
# Vascular permeability [5] = assay: Vascular permeability in rat (Whittle's method); format: in vivo, rat (Wistar strain, male); conditions: for ED30: Rattus norvegicus, po
# Procedure: (ii) Vascular permeability in rat (Whittle's method)
# The test compound was orally administered to each Wistar strain male rat (weighing about 150 g) which had been fasted overnight. After 55 minutes, 0.5 ml of a 0.5% Evans Blue solution was intravenously injected. Five minutes thereafter, 0.2 ml/100 g of a 3%(V/V) acetic acid solution was intraperitoneally injected. After 60 minutes from the injection of the acetic acid solution, the rats were killed by suffocation with chloroform. After immediate laparotomy, the dye leaked into the peritoneal cavity was washed out with physiological saline. The washings were made up with the saline to 30 ml and the absorbance at 640 mμ was measured to examine the effect of the test compounds by comparing the amounts of leaked dye per rat with one another.
# [6] = system: fever (Mycobacterium butyricum); assay: Antipyretic action; format: in vivo, rat (Wistar strain, female); conditions: for ED1.0: Rattus norvegicus, po
# Procedure: A suspension (0.6 mg/0.1 ml) of killed and dried Mycobacterium butyricum in liquid paraffin was subcutaneously injected in an amount of 0.1 ml into the subplantar region of the hind paw of each Wistar strain female rat weighing about 180 g. After 14 hours, the fevered rats were divided into groups, and each test compound was orally administered to each group to examine the antipyretic effect.
# Vascular permeability [7] = assay: Vascular permeability in mice (Whittle's method); format: in vivo, mouse (ddY strain, male); conditions: for ED30: Mus musculus, po; for Inhibition: dye leakage
# Procedure: (i) Vascular permeability in mice (Whittle's method)
# The test compound was orally administered to each ddY strain male mouse (weighing each about 20 g). After 20 minutes, 0.1 ml/10 g of a 4%(Wt/V) solution of Pontamine Sky Blue in physiological saline was intravenously injected and 10 minutes thereafter 0.1 ml/10 g of a 0.7%(V/V) solution of acetic acid in physiological saline was injected intraperitoneally. After 30 minutes, the mice were killed by suffocation with chloroform. After immediate laparotomy, the dye leaked into the peritoneal cavity was washed out with distilled water. The washings were made up with water to 30 ml and the absorbance at 620 mμ was measured. The amount of leaked dye per 20 g of mouse weight was compared.
# in vivo = conditions: rat, po
# [8] = system: Phenol Red (PSP) excretion; assay: Uricosuric action (a), inhibition of Phenol Red (PSP) excretion; format: in vivo, rabbit (male); conditions: dose not stated
# Procedure: (a) The action was examined by the method of B. B. Brodie et al. who reported that the inhibitory action on Phenol Red (PSP) excretion correlates with the uricosuric action [Proc. Soc. Exp. Biol. Med., 86, 884 (1954)]. To a male rabbit weighing 2 to 3 kg was intraperitoneally administered the test compound. After 30 minutes, 75 mg/kg of a Phenol Red suspension was injected into the pinna vein of the rabbit and 30 minutes thereafter a blood sample was drawn from the pinna vein. The blood sample was centrifuged and the serum was diluted with physiological saline. The diluted serum was treated with 0.1 N NaOH to develop the color. The concentration of Phenol Red in the serum was determined from the absorbance at 560 mμ.
# [9] = Mus musculus, po, 10 min, writhing, 40 mg/kg p.o.
# [10] = Mus musculus, po, 10 min, read-out: Inhibition
compound,measurement,setting,value
CC(C(=O)O)c1ccc(-c2ccc(Cl)s2)cc1 (stereo not shown) [Compound C8],inhibition in vivo at 5 mg/kg,"[1]; 5 mg/kg p.o., mean in 5 hours",17%
same,inhibition in vivo at 15 mg/kg,[1]; mean in 5 hours,41.9%
same,"Frequency of writhing, mean ± S.E.",[2]; 20 mg/kg p.o.,17.5 ± 4.2
same,"Frequency of writhing, mean ± S.E.",[2]; 40 mg/kg p.o.,6.3 ± 0.6
same,inhibition in vivo at 20 mg/kg,"[2]; Mus musculus, po, 10 min, writhing, 20 mg/kg p.o., read-out: Inhibition",25.8%
same,inhibition in vivo at 40 mg/kg,[2]; [9],73.3%
same,ED50,"[2]; po, mouse, read-out: ED50",27 mg/kg
O=C(O)Cc1ccc(-c2cccs2)cc1 [Compound C9],inhibition in vivo at 5 mg/kg,"[1]; 5 mg/kg p.o., mean in 5 hours",15.1%
same,inhibition in vivo at 15 mg/kg,[1]; mean in 5 hours,24.1%
same,"Frequency of writhing, mean ± S.E.",[2]; 40 mg/kg p.o.,13.9 ± 1.6
same,inhibition in vivo at 40 mg/kg,[2]; [9],41.1%
same,ED50,"[2]; po, mouse, read-out: ED50",> 40 mg/kg
O=C(O)Cc1ccccc1Nc1c(Cl)cccc1Cl [Diclofenac sodium],inhibition in vivo at 1 mg/kg,[1]; 5 h,6.4%
same,inhibition in vivo at 5 mg/kg,[1]; 5 h,39.8%
same,Inhibition,[3]; 1 mg/kg p.o.,22.7%
same,Inhibition,[3]; 5 mg/kg p.o.,49.7%
same,Inhibition,[3]; 25 mg/kg p.o.,74.9%
same,ED50,[3],5.3 mg/kg
same,Inhibitory percent of swelling,Adjuvant arthritis,10.9%
same,Analgesic effect,[4]; 5 mg/kg p.o.,31%
same,Analgesic effect,[4]; 20 mg/kg p.o.,71%
same,ED50,[4],9.5 mg/kg
same,Inhibition,Vascular permeability [5]; 1 mg/kg p.o.,5.4%
same,Inhibition,Vascular permeability [5]; 5 mg/kg p.o.,30.2%
same,ED30,Vascular permeability [5],4.8 mg/kg
same,"Frequency of writhing, mean ± S.E.",[2]; 5 mg/kg p.o.,21.4 ± 3.0
same,"Frequency of writhing, mean ± S.E.",[2]; 10 mg/kg p.o.,16.2 ± 3.1
same,"Frequency of writhing, mean ± S.E.",[2]; 20 mg/kg p.o.,10.9 ± 1.7
same,ED50,"[2]; Mus musculus, po",17.7 mg/kg
same,inhibition in vivo at 5 mg/kg,[2]; [10],9.3%
same,inhibition in vivo at 20 mg/kg,[2]; [10],53.8%
same,Mean decrease in temp.,[6]; 0.2 mg/kg p.o.,0.88 °C
same,Mean decrease in temp.,[6]; 1 mg/kg p.o.,1.63 °C
same,Mean decrease in temp.,[6]; 5 mg/kg p.o.,1.57 °C
same,ED1.0,[6],0.25 mg/kg
same,Dye leakage (P.S.B.) mean ± S.E.,Vascular permeability [7]; 10 mg/kg p.o.,227.0 ± 14.4 μg/20g
same,Dye leakage (P.S.B.) mean ± S.E.,Vascular permeability [7]; 20 mg/kg p.o.,205.3 ± 10.1 μg/20g
same,ED30,Vascular permeability [7],14 mg/kg
same,Inhibition,Vascular permeability [7]; 5 mg/kg p.o.,5.4%
same,Inhibition,Vascular permeability [7]; 20 mg/kg p.o.,36.0%
CC(C)Cc1ccc(C(C)C(=O)O)cc1 (stereo not shown) [Ibuprofen],Analgesic effect,[4]; 20 mg/kg p.o.,36%
same,Analgesic effect,[4]; 80 mg/kg p.o.,60%
same,ED50,[4],44.5 mg/kg
COc1ccc2c(c1)c(CC(=O)O)c(C)n2C(=O)c1ccc(Cl)cc1 [Indomethacin],inhibition in vivo at 1 mg/kg,[1]; 5 h,6.4%
same,inhibition in vivo at 5 mg/kg,[1]; 5 h,46.2%
same,Inhibition,[3]; 1 mg/kg p.o.,27.4%
same,Inhibition,[3]; 5 mg/kg p.o.,41.6%
same,Inhibition,[3]; 25 mg/kg p.o.,75.6%
same,ED50,[3],6.3 mg/kg
same,Analgesic effect,[4]; 5 mg/kg p.o.,44%
same,Analgesic effect,[4]; 20 mg/kg p.o.,80%
same,ED50,[4],6 mg/kg
same,Inhibition,Vascular permeability [5]; 0.5 mg/kg p.o.,20.7%
same,Inhibition,Vascular permeability [5]; 1 mg/kg p.o.,32.5%
same,Inhibition,Vascular permeability [5]; 5 mg/kg p.o.,47.7%
same,ED30,Vascular permeability [5],1 mg/kg
same,LD50,in vivo,16.2 mg/kg
same,"Frequency of writhing, mean ± S.E.",[2]; 5 mg/kg p.o.,13.8 ± 2.9
same,"Frequency of writhing, mean ± S.E.",[2]; 10 mg/kg p.o.,9.1 ± 3.1
same,"Frequency of writhing, mean ± S.E.",[2]; 20 mg/kg p.o.,5.4 ± 2.1
same,ED50,"[2]; Mus musculus, po",7 mg/kg
same,inhibition in vivo at 5 mg/kg,[2]; [10],41.5%
same,inhibition in vivo at 10 mg/kg,[2]; [10],61.4%
same,inhibition in vivo at 20 mg/kg,[2]; [10],77.1%
same,Uricosuric action (in words),[8],very weak
same,Mean decrease in temp.,[6]; 0.2 mg/kg p.o.,0.25 °C
same,Mean decrease in temp.,[6]; 1 mg/kg p.o.,0.87 °C
same,Mean decrease in temp.,[6]; 5 mg/kg p.o.,1.35 °C
same,ED1.0,[6],1.06 mg/kg
same,Dye leakage (P.S.B.) mean ± S.E.,Vascular permeability [7]; 5 mg/kg p.o.,240.5 ± 25.9 μg/20g
same,Dye leakage (P.S.B.) mean ± S.E.,Vascular permeability [7]; 10 mg/kg p.o.,204.5 ± 17.6 μg/20g
same,Dye leakage (P.S.B.) mean ± S.E.,Vascular permeability [7]; 20 mg/kg p.o.,176.4 ± 17.0 μg/20g
same,ED30,Vascular permeability [7],6.8 mg/kg
same,Inhibition,Vascular permeability [7]; 5 mg/kg p.o.,25.0%
same,Inhibition,Vascular permeability [7]; 10 mg/kg p.o.,36.3%
same,Inhibition,Vascular permeability [7]; 20 mg/kg p.o.,45.0%
CC(C(=O)O)c1cccc(C(=O)c2ccccc2)c1 (stereo not shown) [Ketoprofen],Analgesic effect,[4]; 10 mg/kg p.o.,40%
same,Analgesic effect,[4]; 40 mg/kg p.o.,61%
same,ED50,[4],19.5 mg/kg
